Results as given in publication PMC7537338, “CD47/SIRPα blocking peptide identification and synergistic effect with irradiation for cancer immunotherapy” (Journal for Immunotherapy of Cancer, 2020).
Where a SMILES comes first, the peptide text is derived from it. [ ]: non-standard residue; d: D form.

Key:
[1] = target: T1, human CD47/SIRPα interaction (Homo sapiens, UniProt Q08722); test: Blocking assay, human CD47 protein binding to CHO cells expressing human SIRPα (flow cytometry); settings: blockade of peptides to hCD47 relative to parent pep-20, Table S4
T1 construct: Human or mouse CD47-IgV-Domain-hIg fusion proteins (20 nM, Sino Biological, China); purchased Sino Biological (hIg fusion); ACROBiosystems (biotinylated human CD47); host or cells: SIRPα partner: CHO cells stably expressing human SIRPα
T1 sequence (Q08722 19-127 limits assumed): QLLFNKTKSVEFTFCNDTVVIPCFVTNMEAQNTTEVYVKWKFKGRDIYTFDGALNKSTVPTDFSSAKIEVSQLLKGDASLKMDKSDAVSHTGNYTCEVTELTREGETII
Protocol: Human or mouse CD47-IgV-Domain-hIg fusion proteins (20 nM, Sino Biological, China), or biotinylated human CD47 protein (20 nM, ACROBiosystems, USA) was incubated with titrating concentrations of peptides or anti-human CD47 antibody (B6H12) in phosphate-buffered saline (PBS, pH 7.4) for 1 hour at 4°C. The mixture was incubated with human or mice SIRPα overexpressed Chinese hamster ovary cells for 30 min at 4°C, washed to remove unbound mixtures and phycoerythrin (PE)-conjugated goat anti-human IgG or PE-conjugated streptavidin was incubated (eBioscience, USA). Cells were then analyzed by flow cytometry (BD Biosciences, USA). The IC50 was determined from sigmoidal dose response curves illustrated by GraphPad Prism.

in vivo = settings: C57BL/6, mouse, iv, 40 mg/kg
Protocol: (§1) of pep-20 and pep- 20-D12. The plasma concentration-time curve of pep-20 (E) and
(§2) C57BL/6 mice with weight of 18-20 g were administrated with a single 141
(§3) centrifuged at 8000 rpm for 10 min at the indicated intervals. Plasma wa s 143
(§4) further mixed with 10% HClO4 at a ratio of 2∶1 (v/v) and centrifuged at 16,000 144

[2] = Peptide stability assay in 10% human serum; assay type: in vitro ADME; settings: 200 μM peptide in normal saline, fresh human serum 10% vol/vol, 37°C, sampled 0 min to 48 h, RP-HPLC, triplicates
Protocol: proteolysis compared with parent pep-20. (A, B) Dose response curves of pep-20-D12 interfering CD47-Sirpα interaction. […]
peptide and serum were analyzed by RP-HPLC. Error bars indicate standard deviation of triplicates. Data are represented as means ± SEM. (E, F) The pharmacokinetic analysis […]
of pep-20 and pep- 20-D12.
Data are represented as means ± SEM. […]
human serum (10%, vol/vol).
8h, 24h, 36h and 48h. The acetonitrile-glacial acetic acid mixture was utilized 136 to terminate the enzymatic reaction. After centrifuged at 12000 rpm for 10 min, 137 […]
Pharmacokinetic assays in vivo 140 […]
intravenous dose of 40 mg/kg of peptides. Blood samples were collected an d 142 […]
rpm for 10 min. The supernatant was analyzed by RP-HPLC. The 145 pharmacokinetic parameters of peptides were determined by 146 noncompartmental analysis (NCA) using Phoenix WinNonlin software program 147 5.2.1 (Certara, Princeton, USA). The maximum plasma concentration Cmax and 148 elimination half-life (T1/2) were calculated. 149

[3] = Pharmacokinetic assay in vivo; settings: C57BL/6, mouse, plasma, iv, 40 mg/kg
Protocol: as §1, §2, §3, §4

[4] = system: MC38 tumor-bearing C57BL/6 mice; test: Hematological toxicity in MC38 tumor-bearing mice; assay type: in vivo; settings: 2 mg/kg i.p. every day two weeks versus miap301 400 μg every 3 days x5, day 14, n = 4 - 5
Protocol: anti-CD47. (A, B) MC38 tumor-bearing C57BL/6 mice were treated i.p. with 2 mg/kg pep-20-D12 every day for two weeks or 400μg anti -mouse CD47 antibody
(miap301) every 3 days for a total of 5 times, and normal saline or ratIg as the negative controls, respectively (n = 4 - 5). On day 14, hematologic parameters of red blood cell (A), hemoglobin (B) level were analyzed. Data are represented as means ± SEM. Statistical significance was determined by unpaired Student's t test.
111 Mouse toxicity assays
112 Normal C57BL/6 mice were injected s.c. with 2 mg/kg peptides or normal 113 saline as the negative control daily from day 1 to 14 (n = 5). On days 0 and 14, 114 mice blood samples were collected via retro-orbital bleed. For MC38 115 tumor-bearing mice, blood samples were collected after treatment (n = 4 - 5).
116 Hematologic and blood biochemical parameters were analyzed by ADVIA 117 2120i Hematology Analyzer (Siemens, Germany). […]
124 The 3D structure of pep-20 was predicted by pep-FOLD3. […] The ΔdAffinity 126 between pep-20 and pep-20-derived alanine substituation analogue peptides 127 were calculated by Ala-scanning of molecular operating environment (MOE, 128 Chemical Computing Group, CA), which was used to display the structure of 129 pep-20 and docking model of pep-20 and CD47 including interaction of […]

C[C@H](NC(=O)[C@@H](CO)NC(=O)[C@@H](Cc1c[nH]c2ccccc12)NC(=O)[C@@H](C)N)C(=O)N[C@H](C(=O)N[C@@H](Cc1c[nH]c2ccccc12)C(=O)N[C@@H](CO)C(=O)N[C@@H](CC(N)=O)C(=O)N[C@@H](Cc1ccc(O)cc1)C(=O)N[C@H](Cc1c[nH]c2ccccc12)C(=O)N[C@H](CCCNC(=N)N)C(=O)N[C@H](Cc1c[nH]cn1)C(=O)O)[C@@H](C)O [pep-20-D12] (H-[dA][dW][dS]ATWSNY[dW][dR][dH]-OH)
Blocking rate relative to pep-20 (%) [1]: 105%
half-life (in vivo): 6.36 h
Time for which the initial concentration was retained in human serum [2]: up to 36 hours
Cmax [3]: 54.5 µg/mL
Blood toxicity (red blood cell, hemoglobin) compared with anti-CD47 antibody [4]: less blood toxicity
